# Reference: patent US12298315B2, “Systems and methods to identify and treat subjects at risk for obstetrical complications” (Wayne State University, priority 2014, dated 2025)
# Experiments:
# [1] = cited from earlier work
# sVEGFR-1 = assay: Maternal plasma sVEGFR-1 concentration by immunoassay; assay type: in vivo, human; settings: pravastatin 20 mg once daily since 17+4 weeks, one pregnant subject
# Description: (§1) Sample collection and immunoassays. Blood was obtained by venipuncture and collected into tubes containing EDTA. Samples were centrifuged and stored at −70° C. Maternal plasma concentrations of sVEGFR-1, PIGF, and sEng were determined by sensitive and specific immunoassays (R&D Systems). The inter- and intra-assay coefficients of variation (CV) were: 1.4% and 3.9% for sVEGFR-1, 2.3% and 4.6% for sEng, and 6.02% and 4.8%, respectively, for PIGF. The sensitivity of the assays was 16.97 […], 0.08 ng/ml for sEng, and 9.52 […]. The laboratory personnel performing the assays were blinded to the clinical information.
# (§2) Sample Collection and Immunoassays. Blood was obtained by venipuncture and collected into tubes containing EDTA at enrollment and every four weeks until the 24th week of gestation, as well as bi-weekly thereafter until delivery. Samples were centrifuged and stored at −70° C. Maternal plasma concentrations of sVEGFR-1, PIGF, and sEng were determined by immunoassays. The inter- and intra-assay coefficients of variation (CV) of the assays were: 1.4% and 3.9% for sVEGFR-1, 2.3% and 4.6% for sEng, and 6.02% and 4.8%, respectively, for PIGF. The sensitivities of the assays were 16.97 […], 0.08 ng/ml for sEng, and 9.52 […]. Laboratory personnel performing the assays were blinded to the clinical information.
# (§3) The subject received subcutaneous 5000 units of heparin twice a day, 81 mg aspirin tablet daily, and IVIG 1 mg/kg every four weeks from the beginning of the current pregnancy. At 12 weeks and 2 days gestation, maternal PAPP-A concentration was low (1st percentile). […] However, bilateral UtA notching (mean UtA PI 2.23 (95th percentile)) was noted, and the plasma angiogenic/anti-angiogenic factor ratio concentrations were low. At 13, 15, and 17 weeks of gestation, plasma concentrations of sVEGFR-1 and sEng were extremely high (96th-98th percentile; see Table 9 and FIGS. 8A and 8C)), and those of PIGF were within normal limits (59th-62nd percentile; Table 9, FIG. 8B). The PIGF/sVEGFR-1 concentration ratios were low, in the 4th, 6th, and 10th percentiles, respectively (see FIG. 8D).
# (§4) The subject was informed of these findings, of the poor prognosis associated with extremely high plasma sVEGFR-1 concentrations, and of the likelihood that this pregnancy, like their previous one, could be affected by MF. After being counseled extensively about the potential adverse events and issues of safety of pravastatin administration during pregnancy, and informed that there was little evidence from animal experiments that pravastatin could reverse angiogenic/anti-angiogenic factor imbalances, the subject was offered and opted to receive pravastatin 20 milligrams once daily at 17 weeks and 4 days of gestation. At 21 weeks of gestation, the plasma concentrations of sVEGFR-1 decreased to the normal range (56th percentile) while that of PIGF increased to 93rd percentile. Plasma sEng remained high, at the 94th percentile.
# (§5) Sample Collection and Immunoassays. Venipuncture was performed serially at regular prenatal visits and admissions to the hospital for all normal and MPFD affected pregnancies. Blood was collected into tubes containing EDTA. Samples were centrifuged and stored at −70° C. until used for assay. Sensitive and specific immunoassays (R&D systems, Minneapolis, MN) were used to determine maternal plasma concentrations of PIGF, sEng, sVEGFR-1 and -2. All immunoassays utilized the quantitative sandwich enzyme immunoassay technique, and their concentrations in maternal plasma were determined by interpolation from the standard curves. The inter- and intra-assay coefficients of variation (CV) obtained in the laboratory were as follows: PIGF, 6.02 and 4.8%, respectively; s-Eng, 2.3 and 4.6%, respectively; sVEGFR-1, 1.4 and 3.9%, respectively; and sVEGFR-2, 2 and 4%, respectively. […]
# PIGF = assay: Maternal plasma PIGF concentration by immunoassay; assay type: in vivo, human; settings: pravastatin 20 mg once daily since 17+4 weeks, one pregnant subject
# Description: as §1, §2, §3, §4, §5
# sEng = assay: Maternal plasma sEng concentration by immunoassay; assay type: in vivo, human; settings: pravastatin 20 mg once daily since 17+4 weeks, one pregnant subject
# Description: as §1, §2, §3, §4, §5
# PIGF/sVEGFR-1 = assay: Maternal plasma PIGF/sVEGFR-1 concentration ratio; assay type: in vivo, human; settings: pravastatin 20 mg once daily since 17+4 weeks, one pregnant subject
# Description: as §1
# Quantile regression was used to calculate median analyte ratio concentrations (PIGF/sVEGFR-1, PIGF/sEng) conditional upon GA among uncomplicated pregnancies (n=886). MoM values were calculated for both analyte ratios for each subject. MoM cutoffs were calculated based on inspection of receiver operating characteristic (ROC) curves calculated for each outcome (stillbirth, late PE, severe late PE, and SGA without PE). Prognostic logistic regression models were constructed for each outcome, including the MoM cutoff and clinical risk factors. Covariables included in adjusted models were selected based on clinical knowledge. Model reduction was performed additionally based on the plausibility of regression coefficients, association with independent variables and the magnitude of change in the main effect parameter estimates. To account for potential model over-fitting, when van Houwelingen and le Cessie's heuristic shrinkage estimator fell below 0.85 (indicator of instability), bootstrap estimated linear shrinkage factors and Firth's penalized maximum likelihood estimation were used to calculate conservative estimates less likely to be affected by over-fitting.
# Statistical Analysis. Proportions and 95% CI or medians and interquartile ranges were calculated for categorical and arithmetic variables. Pearson correlation coefficients were used to characterize bivariate relation among arithmetic variables. Quantile regression models were fitted to estimate expected medians of biochemical analyte concentrations and Doppler velocimetry PI as a function of gestational week at examination for women with uncomplicated term pregnancies. MoM were calculated for each biomarker (biochemical and sonographic) for each subject. […]
# [2] = cited from earlier work; remark: listed apart in the source
# [3] = dually perfused term human placental lobule
structure (smiles),measurement,setting,value
"CC[C@H](C)C(=O)O[C@H]1C[C@@H](C)C=C2C=C[C@H](C)[C@H](CC[C@@H]3C[C@@H](O)CC(=O)O3)[C@H]21 [lovastatin, Lovastatin]","Adverse pregnancy outcomes, post marketing surveillance",[1]; subjects with an early exposure to these drugs,has not found any adverse pregnancy outcomes
"CC[C@H](C)C(=O)O[C@H]1C[C@H](O)C=C2C=C[C@H](C)[C@H](CC[C@@H](O)C[C@@H](O)CC(=O)O)[C@H]21 [pravastatin, Pravastatin]",Plasma concentration of sVEGFR-1,sVEGFR-1; GA 19+5 weeks,4148 pg/mL
same,Plasma concentration of sVEGFR-1,sVEGFR-1; GA 21+6 weeks,1889 pg/mL
same,Plasma concentration of sVEGFR-1,sVEGFR-1; GA 25+3 weeks,2854 pg/mL
same,Plasma concentration of sVEGFR-1,sVEGFR-1; GA 27+4 weeks,3881 pg/mL
same,"Plasma sVEGFR-1, percentile for GA",sVEGFR-1; GA 27+4 weeks,(90) percentile
same,Plasma concentration of sVEGFR-1,sVEGFR-1; GA 29+4 weeks,4684 pg/mL
same,"Plasma sVEGFR-1, percentile for GA",sVEGFR-1; GA 29+4 weeks,(93) percentile
same,Plasma concentration of sVEGFR-1,sVEGFR-1; GA 31+4 weeks,6370 pg/mL
same,"Plasma sVEGFR-1, percentile for GA",sVEGFR-1; GA 31+4 weeks,(97) percentile
same,Plasma concentration of sVEGFR-1,sVEGFR-1; GA 33+5 weeks,11202 pg/mL
same,Plasma concentration of PIGF,PIGF; GA 19+5 weeks,306 pg/mL
same,Plasma concentration of PIGF,PIGF; GA 21+6 weeks,644 pg/mL
same,Plasma concentration of PIGF,PIGF; GA 25+3 weeks,768 pg/mL
same,"Plasma PIGF, percentile for GA",PIGF; GA 27+4 weeks,(74) percentile
same,Plasma concentration of PIGF,PIGF; GA 27+4 weeks,869 pg/mL
same,"Plasma PIGF, percentile for GA",PIGF; GA 29+4 weeks,(65) percentile
same,Plasma concentration of PIGF,PIGF; GA 29+4 weeks,821 pg/mL
same,"Plasma PIGF, percentile for GA",PIGF; GA 31+4 weeks,(44) percentile
same,Plasma concentration of PIGF,PIGF; GA 31+4 weeks,536 pg/mL
same,Plasma concentration of PIGF,PIGF; GA 33+5 weeks,528 pg/mL
same,Plasma concentration of sEng,sEng; GA 19+5 weeks,13.1 ng/mL
same,"Plasma sEng, percentile for GA",sEng; GA 19+5 weeks,(98) percentile
same,Plasma concentration of sEng,sEng; GA 21+6 weeks,8.7 ng/mL
same,Plasma concentration of sEng,sEng; GA 25+3 weeks,8.8 ng/mL
same,"Plasma sEng, percentile for GA",sEng; GA 25+3 weeks,(94) percentile
same,Plasma concentration of sEng,sEng; GA 27+4 weeks,9.9 ng/mL
same,"Plasma sEng, percentile for GA",sEng; GA 27+4 weeks,(95) percentile
same,Plasma concentration of sEng,sEng; GA 29+4 weeks,12.7 ng/mL
same,"Plasma sEng, percentile for GA",sEng; GA 29+4 weeks,(97) percentile
same,Plasma concentration of sEng,sEng; GA 31+4 weeks,9.6 ng/mL
same,"Plasma sEng, percentile for GA",sEng; GA 31+4 weeks,(85) percentile
same,Plasma concentration of sEng,sEng; GA 33+5 weeks,12.7 ng/mL
same,"Plasma sEng, percentile for GA",sEng; GA 33+5 weeks,(85) percentile
same,PIGF/sVEGFR-1 concentration ratio,PIGF/sVEGFR-1; GA 19+5 weeks,0.07
same,"PIGF/sVEGFR-1 ratio, percentile for GA",PIGF/sVEGFR-1; GA 19+5 weeks,(23) percentile
same,PIGF/sVEGFR-1 concentration ratio,PIGF/sVEGFR-1; GA 21+6 weeks,0.34
same,"PIGF/sVEGFR-1 ratio, percentile for GA",PIGF/sVEGFR-1; GA 21+6 weeks,(90) percentile
same,PIGF/sVEGFR-1 concentration ratio,PIGF/sVEGFR-1; GA 25+3 weeks,0.27
same,"PIGF/sVEGFR-1 ratio, percentile for GA",PIGF/sVEGFR-1; GA 25+3 weeks,(51) percentile
same,PIGF/sVEGFR-1 concentration ratio,PIGF/sVEGFR-1; GA 27+4 weeks,0.22
same,"PIGF/sVEGFR-1 ratio, percentile for GA",PIGF/sVEGFR-1; GA 27+4 weeks,(34) percentile
same,PIGF/sVEGFR-1 concentration ratio,PIGF/sVEGFR-1; GA 29+4 weeks,0.18
same,"PIGF/sVEGFR-1 ratio, percentile for GA",PIGF/sVEGFR-1; GA 29+4 weeks,(25) percentile
same,PIGF/sVEGFR-1 concentration ratio,PIGF/sVEGFR-1; GA 31+4 weeks,0.08
same,"PIGF/sVEGFR-1 ratio, percentile for GA",PIGF/sVEGFR-1; GA 31+4 weeks,(10) percentile
same,PIGF/sVEGFR-1 concentration ratio,PIGF/sVEGFR-1; GA 33+5 weeks,0.04
same,"PIGF/sVEGFR-1 ratio, percentile for GA",PIGF/sVEGFR-1; GA 33+5 weeks,(6) percentile
same,Pravastatin remained in the maternal circuit,[2]; [3],68%
same,Pravastatin retained by the placental tissue,[2]; [3],14%
same,Pravastatin transferred to the fetal circuit,[2]; [3],18%
same,Direction of placental transfer,[2]; fetal to maternal versus maternal to fetal compartment,higher transfer of pravastatin from the fetal to the maternal compartment than the reverse
same,Abnormal pregnancy outcomes following exposure,"[1]; humans, exposure during pregnancy",abnormal pregnancy outcomes were not reported
